Source: article PMC9862168, “Inhibition of ANO1 by Cis- and Trans-Resveratrol and Their Anticancer Activity in Human Prostate Cancer PC-3 Cells” (International Journal of Molecular Sciences, 2023)
pIC50: −log10 of the molar value.

Target: T1, ANO1 (Homo sapiens, UniProt Q5XXA6)
T1 sequence (Q5XXA6 1-986): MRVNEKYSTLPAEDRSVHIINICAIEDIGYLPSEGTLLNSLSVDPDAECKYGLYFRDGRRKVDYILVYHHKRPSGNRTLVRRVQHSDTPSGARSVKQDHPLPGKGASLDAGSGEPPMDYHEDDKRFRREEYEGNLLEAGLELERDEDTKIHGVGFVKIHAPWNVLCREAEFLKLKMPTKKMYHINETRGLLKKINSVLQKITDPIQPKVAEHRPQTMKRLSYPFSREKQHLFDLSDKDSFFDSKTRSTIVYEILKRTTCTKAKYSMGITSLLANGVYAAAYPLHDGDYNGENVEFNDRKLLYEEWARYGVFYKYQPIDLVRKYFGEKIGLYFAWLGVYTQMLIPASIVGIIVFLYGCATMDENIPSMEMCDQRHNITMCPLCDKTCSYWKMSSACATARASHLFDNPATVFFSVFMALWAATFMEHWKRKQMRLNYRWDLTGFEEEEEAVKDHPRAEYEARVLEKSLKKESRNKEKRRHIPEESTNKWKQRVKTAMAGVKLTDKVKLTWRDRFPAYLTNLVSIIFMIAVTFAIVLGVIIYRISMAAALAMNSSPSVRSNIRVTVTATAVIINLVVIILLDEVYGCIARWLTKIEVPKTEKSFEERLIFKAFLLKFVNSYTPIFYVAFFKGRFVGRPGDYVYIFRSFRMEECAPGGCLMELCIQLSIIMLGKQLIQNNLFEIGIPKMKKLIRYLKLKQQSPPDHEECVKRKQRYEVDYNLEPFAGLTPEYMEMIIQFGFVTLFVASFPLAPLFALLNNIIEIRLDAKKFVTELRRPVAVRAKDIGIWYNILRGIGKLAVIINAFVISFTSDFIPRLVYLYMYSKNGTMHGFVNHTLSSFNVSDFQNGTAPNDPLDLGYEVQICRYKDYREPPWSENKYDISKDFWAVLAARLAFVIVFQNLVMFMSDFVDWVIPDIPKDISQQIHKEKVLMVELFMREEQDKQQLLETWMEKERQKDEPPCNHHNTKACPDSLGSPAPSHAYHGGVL
Assay: YFP fluorescence quenching in FRT cells expressing human ANO1; also Ussing chamber and whole-cell patch clamp in HEK293T
Assay type: cell-based

Row | Structure (SMILES) | pIC50
1 | Oc1ccc(/C=C/c2cc(O)cc(O)c2)cc1 [trans-resveratrol] | 3.99
2 | Oc1ccc(/C=C\c2cc(O)cc(O)c2)cc1 [cis-resveratrol] | 4.97
